Measurements reported in US20250179024A1, “AMYLOID AND ASSOCIATED PATHOLOGY MODULATORS AND METHODS THEREOF” (Jawaharlal Nehru Centre for Advanced Scientific Research, priority 2022, published 2025).

Test system: C6 microglial cells
Test: Bio-AFM study of microglial activation
Type: cell-based
Details: Aβ 5 μM, compound 10 μM
Method: Microglia activation and its alleviation was studied by Bio-AFM technique combining the indirect immunofluorescence by confocal microscopy and cellular mechanical properties characterization by AFM. C6 microglia was used as model cells and Aβ as pathological stimuli for the study. C6 cells were cultured in glass bottom confocal dishes to attain 70% confluence. The cells were primed to activation by using 500 ng/mL of LPS in low serum media (2.5% FBS). Then microglial cells were treated with 5 μM Aβ42 alone and with NMIs (M3) for 18 h. Then the cells were fixed and probed for Iba1 marker by indirect immunofluorescence, counter stained with Phalloidin rhodamine (200 nM) for actin labeling to visualize the actin distribution and DAPI (1 μM) for labeling the nucleus. The samples were washed thrice using dPBS and subjected to Bio-AFM imaging.
The Bio-AFM studies were performed in Bioscope Resolve AFM integrated with Olympus Fluoview-3000 Confocal laser scanning microscope (Bruker). The original confocal stage was removed and replaced with the Bruker Bio-AFM stage. For the confocal images aspect ratio was fixed to 4:3 with channel size of 640×480 and 3-point calibration was done to obtain proper overlay and pixel scaling was optimized by setting 0.375 μ/pixel. Region of interest was selected in the confocal using 60× oil immersion objective (Olympus plan Apo N) and on selected region AFM probe was landed using MIROVIEW window. Peak Force Quantitative Nanomechanical Mapping (PF-QNM) in Fluid mode was used for imaging the cells wherein this mode works based on Peakforce tapping principle. From this mode, height, log DMT and adhesion force of the samples was recorded. The log DMT was calculated using Derjaguin, Muller, Toropov (DMT) model using the formula given below. Studies were performed using MLCT BIO-F probe made up of non-conductive silicon nitride, coated with reflective Au with spring constant of 0.60 N/m and tip radius of 20 nm. Images were recorded with scanning speed of 0.5 Hz with 512 samples per line. The confocal images were recorded in DAPI, Alex488 and rhodamine channels. AFM data was analyzed using NanoScope analysis software (1.9 version) and confocal images were analyzed using Image J. Ftip=4/3E*√Rd3+Fadh, where Ftip=Force on tip, Fadh=Adhesion force, R=Tip radius and d=Tip sample separation.
C6 microglial cells were used as model and Aβ as stimuli for microglial activation that mimics AD conditions. The C6 cells were primed with LPS (500 ng/mL) for 4 h followed by treatment with Aβ (5 μM) alone and with M3 (10 μM) for 18 h. The cells were stained for Iba1, actin (phalloidin-rhodamine) and nucleus (DAPI), and the samples were subjected to confocal and AFM imaging using integrated Bio-AFM instrument.

With `O=C1c2cccc3c(N(Cc4ccccn4)Cc4ccccn4)ccc(c23)C(=O)N1CCc1ccc(O)c(O)c1` [M3, 6-(bis(pyridin-2-ylmethyl)amino)-2-(3,4-dihydroxyphenethyl)-1H-benzo[de]isoquinoline-1,3(2H)-dione] the “log DMT modulus (cellular stiffness)” value (Aβ treated ~2.06±0.20 Pa, control ~1.38±0.19 Pa) was roughly 1.32±0.15, the height of microglial cells (activated ~5.13±0.29, control ~2.03±0.18) was roughly 3.03 µm and the adhesive force (activated ~5.30±0.24, control 3.21±0.23) was roughly 3.57±0.25 nN. For the same compound, the “Iba1 level compared to Aβ treated cells” value (LPS 500 ng/mL, 18 h) was “reduced significantly”, the “Iba1 localisation with actin” value (LPS 500 ng/mL, 18 h) was “reduced the Iba1 localisation with actin” and the “actin redistribution to the periphery of Aβ treated microglial cells” value (LPS 500 ng/mL, 18 h) was “reduced”.
